Measured values published in patent US8148391B2 (Cephalon, Inc., priority 2006, dated 2012).
Like-named read-outs stand apart in the source and are kept apart here. One block for each compound: values may come before it.

Tests used:
[1] = biological target: T1, baculovirus-expressed ALK (Homo sapiens, UniProt Q9UM73); assay: ALK Kinase Assay (ELISA-type, time-resolved fluorescence); type: biochemical
T1 construct: host or cells: baculovirus expression system
Summary of the method: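 Plates coated with phospholipase C-γ substrate (10 μg/mL in TBS); reaction started with 30 ng/ml ALK and run 15 min at 37° C. Phosphorylated substrate detected with Eu-N1-labeled PT66 antibody. IC50 from sigmoidal variable-slope fit of percent inhibition vs log concentration.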

[2] = biological target: T2, c-Met (cytoplasmic domain) (Homo sapiens, UniProt P08581); assay: c-Met Kinase Assay (same methods as for ALK, with modifications); type: biochemical
T2 construct: 10 ng/mL c-Met (cytoplasmic domain, Invitrogen Corporation #PV3143); purchased Invitrogen Corporation PV3143
Summary of the method: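 Plates were coated with phospholipase C-γ substrate (10 μg/mL) in TBS, and the reaction was started with 10 ng/mL c-Met cytoplasmic domain and run 15 min at 37 °C. Phosphoproduct was detected with Eu-N1-labelled PT66 antibody. IC50 came from a variable-slope sigmoidal fit of percent inhibition vs log concentration.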

[3] = ALK kinase inhibition, 1 μM ATP (Km level), read-out: ALK Activity
[4] = c-Met kinase inhibition, 1 μM ATP (Km level), read-out: cMet Activity
[5] = 1 μM ATP (Km level), 30 ng/ml ALK, 37° C., 15 minutes, read-out: ALK Activity (ALK kinase inhibition, IC50 class)
[6] = 1 μM ATP (Km level), 10 ng/mL c-Met, read-out: cMet Activity (c-Met kinase inhibition, IC50 class)
[7] = ALK kinase inhibition, 1 μM ATP, read-out: ALK Activity
[8] = c-Met kinase inhibition, 1 μM ATP, read-out: cMet Activity
[9] = 1 μM ATP (Km level), read-out: ALK Activity (ALK Kinase Inhibition, IC50)
[10] = 1 μM ATP (Km level), read-out: cMet Activity (c-Met Kinase Inhibition, IC50)

T1 sequence (Q9UM73 19-1620): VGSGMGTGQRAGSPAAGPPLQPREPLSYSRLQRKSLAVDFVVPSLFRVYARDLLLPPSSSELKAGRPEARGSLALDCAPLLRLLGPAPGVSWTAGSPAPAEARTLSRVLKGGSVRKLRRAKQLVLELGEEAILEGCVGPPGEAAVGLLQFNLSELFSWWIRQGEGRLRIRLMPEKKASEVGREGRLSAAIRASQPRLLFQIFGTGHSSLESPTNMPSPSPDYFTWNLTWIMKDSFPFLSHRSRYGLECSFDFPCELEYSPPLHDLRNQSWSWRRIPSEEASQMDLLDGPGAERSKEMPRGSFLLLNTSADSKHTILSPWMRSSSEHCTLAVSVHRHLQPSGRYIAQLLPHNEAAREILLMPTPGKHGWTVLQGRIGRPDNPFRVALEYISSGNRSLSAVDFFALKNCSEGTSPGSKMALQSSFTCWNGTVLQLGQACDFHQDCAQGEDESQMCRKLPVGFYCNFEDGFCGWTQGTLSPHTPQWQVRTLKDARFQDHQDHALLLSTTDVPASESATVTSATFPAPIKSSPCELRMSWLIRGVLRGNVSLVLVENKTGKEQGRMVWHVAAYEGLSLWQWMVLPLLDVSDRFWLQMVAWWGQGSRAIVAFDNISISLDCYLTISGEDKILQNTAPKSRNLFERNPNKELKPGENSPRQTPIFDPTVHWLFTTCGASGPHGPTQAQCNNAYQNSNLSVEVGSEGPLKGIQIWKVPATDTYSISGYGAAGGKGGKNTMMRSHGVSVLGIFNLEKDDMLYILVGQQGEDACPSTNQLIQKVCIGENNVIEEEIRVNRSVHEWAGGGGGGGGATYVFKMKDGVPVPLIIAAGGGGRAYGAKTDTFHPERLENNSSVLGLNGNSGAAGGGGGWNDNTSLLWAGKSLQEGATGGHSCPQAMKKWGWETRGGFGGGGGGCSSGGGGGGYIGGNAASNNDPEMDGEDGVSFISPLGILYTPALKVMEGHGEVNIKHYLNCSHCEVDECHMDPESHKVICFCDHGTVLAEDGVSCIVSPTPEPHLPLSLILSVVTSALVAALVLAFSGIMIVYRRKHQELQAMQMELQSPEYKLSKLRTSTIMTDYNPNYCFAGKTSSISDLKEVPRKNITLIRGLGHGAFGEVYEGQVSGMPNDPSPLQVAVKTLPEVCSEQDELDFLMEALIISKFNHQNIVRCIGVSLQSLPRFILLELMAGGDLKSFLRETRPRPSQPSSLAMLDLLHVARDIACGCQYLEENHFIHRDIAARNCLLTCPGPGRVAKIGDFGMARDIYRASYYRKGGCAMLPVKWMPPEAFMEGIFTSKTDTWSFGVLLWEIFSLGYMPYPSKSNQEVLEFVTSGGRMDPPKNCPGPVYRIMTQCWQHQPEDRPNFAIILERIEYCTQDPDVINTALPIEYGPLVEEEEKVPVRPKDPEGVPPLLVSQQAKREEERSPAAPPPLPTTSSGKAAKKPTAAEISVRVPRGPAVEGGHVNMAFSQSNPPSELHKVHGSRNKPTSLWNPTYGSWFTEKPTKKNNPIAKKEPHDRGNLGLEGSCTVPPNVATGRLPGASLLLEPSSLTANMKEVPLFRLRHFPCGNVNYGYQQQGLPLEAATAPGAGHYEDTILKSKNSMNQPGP
T2 sequence (P08581 956-1390 limits assumed): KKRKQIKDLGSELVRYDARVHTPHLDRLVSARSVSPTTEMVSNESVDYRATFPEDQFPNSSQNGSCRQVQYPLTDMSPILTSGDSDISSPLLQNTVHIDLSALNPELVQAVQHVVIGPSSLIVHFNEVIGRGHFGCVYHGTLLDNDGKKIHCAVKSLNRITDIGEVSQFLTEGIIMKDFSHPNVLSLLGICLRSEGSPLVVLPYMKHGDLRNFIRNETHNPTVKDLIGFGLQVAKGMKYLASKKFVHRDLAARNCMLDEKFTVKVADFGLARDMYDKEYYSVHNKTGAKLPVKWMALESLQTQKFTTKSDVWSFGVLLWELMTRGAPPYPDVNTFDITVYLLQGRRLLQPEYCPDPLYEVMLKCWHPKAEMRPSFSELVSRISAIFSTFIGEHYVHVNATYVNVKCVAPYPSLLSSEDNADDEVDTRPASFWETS

SMILES: CS(=O)(=O)N[C@@H]1CCCC[C@H]1Nc1nc(Nc2ccc3c(c2)C2CCC3CN(C(=O)C(F)(F)F)C2)ncc1Cl (mixture of isomers) [Example 292, N-((1R,2R)-2-{5-Chloro-2-[10-(2,2,2-trifluoro-acetyl)-10-aza-tricyclo[6.3.2.0*2,7*]trideca-2,4,6-trien-4-ylamino]-pyrimidin-4-ylamino}-cyclohexyl)-methanesulfonamide]
IC50 [1, 3]: < 100 nM
IC50 [2, 4]: 1000 to 10000 nM

SMILES: CC(C)S(=O)(=O)c1ccccc1Nc1nc(Nc2ccc3c(c2)CCC(N2CCOCC2)CC3)ncc1Cl (centres unmarked) [Example 1036, 5-Chloro-N*2*-(7-morpholin-4-yl-6,7,8,9-tetrahydro-5H-benzocyclohepten-2-yl)-N*4*-[2-(propane-2-sulfonyl)-phenyl]-pyrimidine-2,4-diamine]
IC50 [1, 5]: < 100 nM
IC50 [2, 6]: 100 to 1000 nM

SMILES: COc1cc2c(cc1Nc1ncc(Cl)c(Nc3ccccc3S(=O)(=O)N(C)C)n1)CCN(CC(=O)N(C)C)CC2 [Example 1141, 2-{7-[5-Chloro-4-(2-dimethylsulfamoyl-phenylamino)-pyrimidin-2-ylamino]-8-methoxy-1,2,4,5-tetrahydro-benzo[d]azepin-3-yl}-N,N-dimethyl-acetamide]
IC50 [1, 5]: < 100 nM
IC50 [2, 6]: 1000 to 10000 nM

SMILES: COc1cc2c(cc1Nc1ncc(Cl)c(Nc3ccccc3S(=O)(=O)N(C)C)n1)CCC(N1CCN(C)CC1)CC2 (centres unmarked) [Example 1099, 2-{5-Chloro-2-[3-methoxy-7-(4-methyl-piperazin-1-yl)-6,7,8,9-tetrahydro-5H-benzocyclohepten-2-ylamino]-pyrimidin-4-ylamino}-N,N-dimethyl-benzenesulfonamide]
IC50 [1, 5]: < 100 nM
IC50 [2, 6]: 1000 to 10000 nM

SMILES: COCCN1CCc2ccc(Nc3ncc(Cl)c(NC4C5C=CC(C5)C4C(N)=O)n3)cc2CC1 (stereo not drawn) [Example 310, (2-exo,3-exo)-3-{5-Chloro-2-[3-(2-methoxy-ethyl)-2,3,4,5-tetrahydro-1H-benzo[d]azepin-7-ylamino]-pyrimidin-4-ylamino}-bicyclo[2.2.1]hept-5-ene-2-carboxylic acid amide]
IC50 [1, 3]: < 100 nM
IC50 [2, 4]: 100 to 1000 nM

SMILES: COc1cc2c(cc1Nc1ncc(Cl)c(Nc3cccc(N4CCOCC4)c3)n1)CCN(CC(=O)N(C)C)CC2 [Example 1145, 2-{7-[5-Chloro-4-(3-morpholin-4-yl-phenylamino)-pyrimidin-2-ylamino]-8-methoxy-1,2,4,5-tetrahydro-benzo[d]azepin-3-yl}-N,N-dimethyl-acetamide]
IC50 [1, 5]: < 100 nM
IC50 [2, 6]: > 10000 nM

SMILES: CC1(C)CCC(=O)Nc2ccc(Nc3ncc(Cl)c(Nc4c(F)cccc4S(C)(=O)=O)n3)cc21 [Example 1260, 7-[5-Chloro-4-(2-fluoro-6-methanesulfonyl-phenylamino)-pyrimidin-2-ylamino]-5,5-dimethyl-1,3,4,5-tetrahydro-1-benzazepin-2-one]
IC50 [1, 5]: < 100 nM
IC50 [2, 6]: 1000 to 10000 nM

SMILES: COCCN1CCc2ccc(Nc3ncc(Cl)c(Nc4ccccc4C(=O)OC)n3)cc2CC1 [Example 1408, 2-{5-Chloro-2-[3-(2-methoxy-ethyl)-2,3,4,5-tetrahydro-1H-benzo[d]azepin-7-ylamino]-pyrimidin-4-ylamino}-benzoic acid methyl ester]
IC50 [1, 5]: < 100 nM
IC50 [2, 6]: 100 to 1000 nM

SMILES: COCCNC1CCCc2c(ccc(Nc3ncc(Cl)c(N[C@H]4[C@@H](C(N)=O)[C@@H]5C=C[C@H]4C5)n3)c2OC)C1 (stereo partly drawn) [Example 956, (1S,2S,3R,4R)-3-{5-Chloro-2-[1-methoxy-6-(2-methoxy-ethylamino)-6,7,8,9-tetrahydro-5H-benzocyclohepten-2-ylamino]-pyrimidin-4-ylamino}-bicyclo[2.2.1]hept-5-ene-2-carboxylic acid amide]
IC50 [1, 9]: < 100 nM
IC50 ([2]; cMet Activity (c-Met Kinase Inhibition, IC50), 1 μM ATP (Km level)): > 10000 nM

SMILES: COc1cc2c(cc1Nc1ncc(C(F)(F)F)c(N[C@H]3[C@@H](C(N)=O)[C@@H]4C=C[C@H]3C4)n1)CCN(CC(=O)N(C)C)CC2 [Example 933, (1S,2S,3R,4R)-3-[2-(3-Dimethylcarbamoylmethyl-8-methoxy-2,3,4,5-tetrahydro-1H-3-benzazepin-7-ylamino)-5-trifluoromethyl-pyrimidin-4-ylamino]-bicyclo[2.2.1]hept-5-ene-2-carboxylic acid amide]
IC50 [1, 9]: < 100 nM
IC50 [2, 10]: 1000 to 10000 nM

SMILES: CN1C(=O)CCCc2cc(Nc3ncc(Cl)c(Nc4cccc5c4ncn5C)n3)ccc21 [Example 1007, 7-[5-Chloro-4-(1-methyl-1H-benzoimidazol-4-ylamino)-pyrimidin-2-ylamino]-1-methyl-1,3,4,5-tetrahydro-benzo[b]azepin-2-one]
IC50 [1, 9]: 100 to 1000 nM
IC50 [2, 10]: 100 to 1000 nM

SMILES: COc1cc2c(cc1Nc1ncc(Cl)c(Nc3ccc(N4CCN(C)CC4)cc3OC)n1)CCNC(=O)C2 [Example 778, 7-{5-Chloro-4-[2-methoxy-4-(4-methyl-piperazin-1-yl)-phenylamino]-pyrimidin-2-ylamino}-8-methoxy-1,3,4,5-tetrahydro-benzo[d]azepin-2-one]
IC50 [1, 9]: < 100 nM
IC50 [2, 10]: > 10000 nM

Second part, the compound after the results:

IC50 [1, 7]: < 100 nM
IC50 [2, 8]: 100 to 1000 nM
SMILES: CCN1CCNC(=O)c2ccc(Nc3ncc(Cl)c(N[C@@H]4CCCC[C@H]4NS(C)(=O)=O)n3)cc21 [Example 1451, N-{(1R,2R)-2-[5-Chloro-2-(1-ethyl-5-oxo-2,3,4,5-tetrahydro-1H-benzo[e][1,4]diazepin-8-ylamino)-pyrimidin-4-ylamino]-cyclohexyl}-methanesulfonamide]

IC50 [1, 7]: < 100 nM
IC50 [2, 8]: 100 to 1000 nM
SMILES: CNC(=O)c1scc(C)c1Nc1nc(Nc2ccc3c(c2)CC(=O)N(C)CC3)ncc1Cl [Example 1816, 3-[5-Chloro-2-(3-methyl-4-oxo-2,3,4,5-tetrahydro-1H-benzo[d]azepin-7-ylamino)-pyrimidin-4-ylamino]-4-methyl-thiophene-2-carboxylic acid methylamide]

IC50 [1, 7]: < 100 nM
IC50 [2, 8]: < 100 nM
SMILES: O=C1CCCc2ccc(Nc3ncc(Cl)c(Nc4ccccc4S(=O)(=O)N4CCC(O)C4)n3)cc2N1 (centres unmarked) [Example 1493, 8-{5-Chloro-4-[2-(3-hydroxy-pyrrolidine-1-sulfonyl)-phenylamino]-pyrimidin-2-ylamino}-1,3,4,5-tetrahydro-benzo[b]azepin-2-one]

IC50 [1, 7]: < 100 nM
IC50 [2, 8]: < 100 nM
SMILES: O=C1CCCc2ccc(Nc3ncc(Cl)c(Nc4ccccc4S(=O)(=O)N4CCCC4)n3)cc2N1 [Example 1731, 8-{5-Chloro-4-[2-(pyrrolidine-1-sulfonyl)-phenylamino]-pyrimidin-2-ylamino}-1,3,4,5-tetrahydro-benzo[b]azepin-2-one]

IC50 [1, 7]: 100 to 1000 nM
IC50 [2, 8]: < 100 nM
SMILES: CNC(=O)c1sc(Br)c(C)c1Nc1nc(Nc2ccc3c(c2)CCOC(=O)N3C)ncc1Cl [Example 1771, 5-Bromo-3-[5-chloro-2-(5-methyl-6-oxo-5,6,8,9-tetrahydro-7-oxa-5-aza-benzocyclohepten-2-ylamino)-pyrimidin-4-ylamino]-4-methyl-thiophene-2-carboxylic acid methylamide]

IC50 [1, 7]: < 100 nM
IC50 [2, 8]: > 10000 nM
SMILES: COc1cc2c(cc1Nc1ncc(Cl)c(N[C@H]3[C@@H](C(N)=O)[C@@H]4C=C[C@H]3C4)n1)NC(=O)CN(CC1CC1)C2 [Example 1667, (1S,2S,3R,4R)-3-[5-Chloro-2-(4-cyclopropylmethyl-7-methoxy-2-oxo-2,3,4,5-tetrahydro-1H-benzo[e][1,4]diazepin-8-ylamino)-pyrimidin-4-ylamino]-bicyclo[2.2.1]hept-5-ene-2-carboxylic acid amide]

IC50 [1, 7]: < 100 nM
IC50 [2, 8]: > 10000 nM
SMILES: COCCOC(=O)c1ccccc1Nc1nc(Nc2cc3c(cc2OC)CCN(CCO)CC3)ncc1Cl [Example 1549, 2-{5-Chloro-2-[3-(2-hydroxy-ethyl)-8-methoxy-2,3,4,5-tetrahydro-1H-3-benzazepin-7-ylamino]-pyrimidin-4-ylamino}-benzoic acid 2-methoxy-ethyl ester]

IC50 [1, 7]: < 100 nM
IC50 [2, 8]: > 10000 nM
SMILES: CCN1CC(=O)Nc2cc(Nc3ncc(Cl)c(Nc4ccccc4S(=O)(=O)C(C)C)n3)c(OC)cc2C1 [Example 1660, 8-{5-Chloro-4-[2-(propane-2-sulfonyl)-phenylamino]-pyrimidin-2-ylamino}-4-ethyl-7-methoxy-1,3,4,5-tetrahydro-benzo[e][1,4]diazepin-2-one]

IC50 [1, 7]: 100 to 1000 nM
IC50 [2, 8]: < 100 nM
SMILES: CNC(=O)c1sc(Cl)c(C)c1Nc1nc(Nc2ccc3c(c2)CCOC(=O)N3C)ncc1Cl [Example 1770, 5-Chloro-3-[5-chloro-2-(5-methyl-6-oxo-5,6,8,9-tetrahydro-7-oxa-5-aza-benzocyclohepten-2-ylamino)-pyrimidin-4-ylamino]-4-methyl-thiophene-2-carboxylic acid methylamide]

IC50 [1, 7]: < 100 nM
IC50 [2, 8]: < 100 nM
SMILES: CCN1C(=O)OCCc2cc(Nc3ncc(Cl)c(Nc4ccccc4C(=O)NC)n3)ccc21 [Example 1745, 2-[5-chloro-2-(5-ethyl-6-oxo-5,6,8,9-tetrahydro-7-oxa-5-aza-benzocyclohepten-2-ylamino)-pyrimidin-4-ylamino]-N-methyl-benzamide]
